# System: healthy subjects
# Assay: TD-6450 phase I clinical study (SAD/MAD): safety and tolerability
# Type: in vivo, human
# Excerpt: This was a phase I, double-blinded, randomized, placebo-controlled, Single Ascending Dose (SAD) and Multiple Ascending Dose (MAD) study to evaluate the safety and tolerability of TD-6450 in healthy subjects (primary objective) and the pharmacokinetics (secondary objective). The study is available in the website clinicaltrial.gov (identifier NCT02022306), it started on February the 4th 2014 (first subject enrolled) and was concluded on August the 18th 2014 (last subject concluded), in the Healthcare Discoveries (a subsidiary of ICON Development Solutions) in San Antonio, Texas, USA. Healthy, non-smoking subjects with no history of significant medical conditions, with a BMI included between 18 and 30 kg/m^2, who weight at least 50 kg, between 18 and 60 years old, were selected for this study. Subjects were able and willing to give an informed consent. No bias was reported in the selection process. The protocol and all amendments for this study and all accompanying material that was provided to subjects (including advertisements, subject’s information sheets, and descriptions of the study used to obtain informed consent) were submitted by the investigator to the centralized Institutional Review Board (IRB), namely the IntegReview, established in 1999 at Austin (Texas, U.S.A.) and acquired by Advarra in 2020. Documented approval was obtained before the study was started, on March the 28th 2014. This study was conducted in accordance with the protocol, the principles of the International Conference on Harmonization of Technical Requirements for Registration of Pharmaceuticals for Human Use (ICH) Guideline for Good Clinical Practice (GCP), the United States Code of Federal Regulations, the principles of the World Medical Association Declaration of Helsinki, Ethical Principles for Medical Research Involving Human Subjects, and all applicable regulatory requirement.
# Primary and secondary outcomes were pre-defined as follows: Safety and tolerability as a primary outcome, pharmacokinetics as a secondary outcome. Safety and tolerability were evaluated using standard measures, including adverse event (AE) monitoring, clinical laboratory tests (hematology, serum chemistry, coagulation, and urinalysis), vital signs, physical examinations, and 12-lead electrocardiograms (ECGs). […] Pharmacokinetics were evaluated by the collection of blood samples from each subject at following time points: predose (within 30 min before dosing, only in day 1 60 min before dosing), and 0.5,1,2,3,4,6,8 and 12 hours after dosing.
# This study was conducted in two parts, Part A (SAD) and Part B (MAD). For the Part A, the age of enrolled subjects ranged from 20 to 60 years, with a mean age range of 32.1 to 46.2 years. Most subjects were male (73 total subjects) and most were white (55 subjects) or black (22 subjects). For Part B of the study, ages ranged from 23 to 60 years with a similar mean age across treatment groups. Most subjects were male (25 total subjects) and all were either white (18 subjects) or black (12 subjects). For each part of the study, the mean body mass index (BMI) and creatinine clearance were similar across treatment groups. […] Part A: Healthy subjects were sequentially enrolled and randomly assigned to each dose cohort (up to 10 dose-ascending cohorts were planned, including a fed arm in the food effect cohort) to receive either a single dose of TD-6450 or placebo. For each dose cohort, 8 subjects were randomized in a 3:1 ratio (6 subjects received TD-6450 and 2 subjects received placebo). The starting dose of TD-6450 was 0.5 mg with a planned maximum dose of 1000 mg. Upon review of the 500-mg cohort PK data, the decision was made to not escalate to the 1000-mg cohort because of exposure saturation at ≥ 500 mg. The following doses were administered: 0.5 mg, 1.5 mg, 5 mg, 15 mg, 30 mg, 60 mg, 120 mg, 240 mg, and 500 mg. […]
smiles,measurement,setting,value
CNC(=O)N1C[C@@H](C)N(c2ccc(C(=O)Nc3ccc(-c4ccc(-c5c[nH]c([C@@H]6CCCN6C(=O)[C@@H](NC(=O)OC)C(C)C)n5)cc4)c(OC(F)(F)F)c3)cn2)C[C@@H]1C [TD-6450],At least one AE N (%),MAD 60 mg once daily 14 days,4 (50.0) N (%)
same,At least one SAE N (%),MAD 60 mg once daily 14 days,0 (0.0) N (%)
same,Death N (%),MAD 60 mg once daily 14 days,0 (0.0) N (%)
same,Discontinuation due to an AE N (%),MAD 60 mg once daily 14 days,0 (0.0) N (%)
same,At least one AE N (%),MAD 120 mg once daily 14 days,3 (37.5) N (%)
same,At least one SAE N (%),MAD 120 mg once daily 14 days,0 (0.0) N (%)
same,Death N (%),MAD 120 mg once daily 14 days,0 (0.0) N (%)
same,Discontinuation due to an AE N (%),MAD 120 mg once daily 14 days,0 (0.0) N (%)
same,At least one AE N (%),MAD 240 mg once daily 14 days,3 (37.5) N (%)
same,At least one SAE N (%),MAD 240 mg once daily 14 days,0 (0.0) N (%)
same,Death N (%),MAD 240 mg once daily 14 days,0 (0.0) N (%)
same,Discontinuation due to an AE N (%),MAD 240 mg once daily 14 days,0 (0.0) N (%)
same,At least one AE N (%),SAD 0.5 mg,3 (50.0) N (%)
same,At least one SAE N (%),SAD 0.5 mg,0 (0.0) N (%)
same,Death N (%),SAD 0.5 mg,0 (0.0) N (%)
same,Discontinuation due to an AE N (%),SAD 0.5 mg,0 (0.0) N (%)
same,At least one AE N (%),SAD 1.5 mg,3 (50.0) N (%)
same,At least one SAE N (%),SAD 1.5 mg,0 (0.0) N (%)
same,Death N (%),SAD 1.5 mg,0 (0.0) N (%)
same,Discontinuation due to an AE N (%),SAD 1.5 mg,0 (0.0) N (%)
same,At least one AE N (%),SAD 5 mg,0 (0.0) N (%)
same,At least one SAE N (%),SAD 5 mg,0 (0.0) N (%)
same,Death N (%),SAD 5 mg,0 (0.0) N (%)
same,Discontinuation due to an AE N (%),SAD 5 mg,0 (0.0) N (%)
same,At least one AE N (%),SAD 15 mg,1 (16.7) N (%)
same,At least one SAE N (%),SAD 15 mg,0 (0.0) N (%)
same,Death N (%),SAD 15 mg,0 (0.0) N (%)
same,Discontinuation due to an AE N (%),SAD 15 mg,0 (0.0) N (%)
same,At least one AE N (%),SAD 30 mg,1 (16.7) N (%)
same,At least one SAE N (%),SAD 30 mg,0 (0.0) N (%)
same,Death N (%),SAD 30 mg,0 (0.0) N (%)
same,Discontinuation due to an AE N (%),SAD 30 mg,0 (0.0) N (%)
same,At least one AE N (%),SAD 60 mg,0 (0.0) N (%)
same,At least one SAE N (%),SAD 60 mg,0 (0.0) N (%)
same,Death N (%),SAD 60 mg,0 (0.0) N (%)
same,Discontinuation due to an AE N (%),SAD 60 mg,0 (0.0) N (%)
same,At least one AE N (%),SAD 120 mg,1 (16.7) N (%)
same,At least one SAE N (%),SAD 120 mg,0 (0.0) N (%)
same,Death N (%),SAD 120 mg,0 (0.0) N (%)
same,Discontinuation due to an AE N (%),SAD 120 mg,0 (0.0) N (%)
same,At least one AE N (%),SAD 240 mg,0 (0.0) N (%)
same,At least one SAE N (%),SAD 240 mg,0 (0.0) N (%)
same,Death N (%),SAD 240 mg,0 (0.0) N (%)
same,Discontinuation due to an AE N (%),SAD 240 mg,0 (0.0) N (%)
same,At least one AE N (%),SAD 500 mg,2 (33.3) N (%)
same,At least one SAE N (%),SAD 500 mg,0 (0.0) N (%)
same,Death N (%),SAD 500 mg,0 (0.0) N (%)
same,Discontinuation due to an AE N (%),SAD 500 mg,0 (0.0) N (%)
same,severe adverse events in Phase 1 study,single or multiple doses,no severe adverse events

# Source: article PMC10082216 (Nature Communications, 2023)
